Non-standard residues stand in square brackets, D forms with d. Residues, ends and D or L forms follow the SMILES beside them. *: point of attachment. Sta = CC(C)C[C@H](N)[C@@H](O)CC(=O)O; Isovaleryl = CC(C)CC(=O)*
Assay: Cyclization of 3H-GGPP by purified elisabethatriene cyclase-containing chromatography fractions
Type: biochemical, Pseudopterogorgia elisabethae
Settings: judged by the formation of pseudopterosins
Experimental: An example of a method for cyclizing GGPP to elisabethatriene includes the steps of providing purified elisabethatriene cyclase and contacting the GGPP substrate with the purified elisabethatriene cyclase under reaction conditions that result in the production of elisabethatriene. Any suitable reaction conditions that result in the production of elisabethatriene may be used. For example, ^3H-GGPP (1 μCi) is incubated with a suitable amount of purified elisabethatriene cyclase at 27° C. for 1-4 hours.
To purify enzymatically active elisabethatriene cyclase, CFE samples were subjected to DEAE ion-exchange chromatography, phenyl sepharose chromatography, hydroxyapatite chromatography, and UNO™ [2-Propen-1-aminium, N,N,-dimethyl-N-2-propenyl-, chloride, polymer with 1,4-bis(1-oxo-2-propenyl)piperazine and 2-methyl-2-propenamide] ion exchange chromatography (Bio-Rad Laboratories, Hercules, Calif.). Active fractions were obtained in all cases. Fractions resulting from these purification techniques were concentrated by ultracentrifugation, and then 0.5-100 μg (brought up to a total volume of 500 μl) was assayed for enzymatic activity by incubation with 1 μCi [1]^3H-GGPP for 1 hour in 20 mM Tris buffer (pH 7.7, 3 mM EDTA, 5 mM β-mercaptoethanol, 5 mM MgCl2). Samples were quenched, extracted with 500 μl hexanes and partially purified by passing through a small silica gel pasteur pipette column. Elisabethatriene was then added as “cold carrier” and incubations were purified by high-performance liquid chromatography (HPLC). […] Radioactivity in HPLC fractions was quantified by scintillation counting.
Using elisabethatriene cyclase purified by column chromatography as described in Example 1, GGPP was cyclized to elisabethatriene. To carry out the reaction, incubations were performed by incubating ^3H-GGPP(1 μCi) with purified elisabethatriene cyclase-containing fractions from chromatography columns at 27° C. for 1-4 hours.

effect of adding protease inhibitors on enzymatic activity of the fractions | Structure (SMILES)
did not increase the enzymatic activity | CC(=O)N[C@@H](CC(C)C)C(=O)N[C@@H](CC(C)C)C(=O)N[C@H](C=O)CCCNC(=N)N [leupeptin]
did not increase the enzymatic activity | CC(C)C[C@H](NC(=O)[C@@H](NC(=O)N[C@@H](Cc1ccccc1)C(=O)O)[C@@H]1CCN=C(N)N1)C(=O)N[C@H](C=O)Cc1ccccc1 [chymostatin]
did not increase the enzymatic activity | CC(C)CC(=O)N[C@H](C(=O)N[C@H](C(=O)N[C@@H](CC(C)C)[C@@H](O)CC(=O)N[C@@H](C)C(=O)N[C@@H](CC(C)C)[C@@H](O)CC(=O)O)C(C)C)C(C)C [pepstatin] (Isovaleryl-VV[Sta]A[Sta]-OH)
